Among the data in ChEMBL document CHEMBL2094260, “Malaria Box Tuberculosis Screening Data” are MIC90, CC50 and inhibition values, retold here.

Usually MIC90 stands for an inhibitory concentration at the 90% level, which refers to growth in some studies and to a panel of isolates in others. The low end stands for greater potency, the high end for weaker potency. One may read the inhibition as the relative decrease from the control value, in per cent.

Converted amounts (≈) assume the structure as drawn.

Data set [1] relates to Mycobacterium tuberculosis. Description: MMV: CRC and MIC90 against Mtb (replicating). It counts as functional.
A short description of data set [2]: MMV: Cytotoxicity CRC and LD50 against HepG2. It counts as toxicity, cell-based. The conditions noted are these: human, HepG2 cells; read-out: LD50 (the source's name).
Data set [3] has as its system Mycobacterium tuberculosis. Description: MMV: Screen against Mtb, single point, non replicating, at 25uM. The format is functional.
Data set [4] concerns Mycobacterium tuberculosis. Put plainly: MMV: Screen against Mtb, single point, replicating, at 25uM. It counts as functional.
The test system of data set [5] is Mycobacterium tuberculosis. Put plainly: MMV: CRC and MIC90 against Mtb (non replicating). The format is functional.

`C[n+]1c2ccccc2nc2ccc(NCCO)cc21`: the MIC90 in data set [1] was 6 µM; in data set [5], above 100 µM. In data set [2], the CC50 stood at 6.65 µM. The results for the inhibition at 25 µM in data set [3] and in data set [4] were 37.7% and 84.9%, respectively.

Regarding `CCn1nc(-c2ccc(C(=O)OC)cc2)nc2c(=O)n(C)c(=O)nc1-2`, the MIC90 in data set [1] is above 100 µM; in data set [5], 33.6 µM (≈ 11.5 µg/mL). The CC50 in data set [2] was found to be 1.36 µM. The figures for the inhibition at 25 µM in data set [3] and in data set [4] were 65.1% and 55.9%, respectively.

In the case of `Cc1cc(N2CCCC2)nc(Nc2ccc(NC(=O)CCc3ccccc3)cc2)n1`, the MIC90 in data set [1] was 14 µM (≈ 5.62 µg/mL); in data set [5], above 100 µM. Further, the CC50 in data set [2] is 2.64 µM. For the same compound, the values for the inhibition at 25 µM in data set [3] and in data set [4] were 9.94% and 82.1%, respectively.

Consider `CC(C)(C)CC(C)(C)NCC(O)COc1ccc(Cl)cc1Cl` (stereo not given), for which the MIC90 worked out at 4.47 µM (≈ 1.56 µg/mL) in data set [1] and 40.2 µM (≈ 14 µg/mL) in data set [5]. Also, the CC50 in data set [2] amounted to 3.51 µM. In addition, the results for the inhibition at 25 µM in data set [3] and in data set [4] were 30.2% and 98.5%, respectively.

On to `COc1cccc(Nc2nc(NCCO)c3ccccc3n2)c1`, for which the MIC90 was 27.3 µM (≈ 8.47 µg/mL) in data set [1] and above 100 µM in data set [5]. Also, the CC50 in data set [2] is 26 µM. The inhibition at 25 µM worked out at 14.8% in data set [3] and 81.8% in data set [4].

As to `COCCNCC(O)Cn1c2ccc(Cl)cc2c2cc(Cl)ccc21` (stereo not given), the MIC90 worked out at 11.6 µM (≈ 4.26 µg/mL) in data set [1] and 56.1 µM (≈ 20.6 µg/mL) in data set [5]. In data set [2], the CC50 was 3.92 µM. Further, the figures for the inhibition at 25 µM in data set [3] and in data set [4] were 26.7% and 99.4%, respectively.

Regarding `FC(F)(F)c1cccc(Nc2nc3ccccc3nc2Nc2cccc(C(F)(F)F)c2)c1`, the figures for the MIC90 in data set [1] and in data set [5] were 3.33 µM (≈ 1.49 µg/mL) and 5.75 µM (≈ 2.58 µg/mL), respectively. Moreover, the CC50 in data set [2] worked out at 1.59 µM. Besides, the inhibition at 25 µM in data set [3] came to 102%; in data set [4] it was 97.6%.

Take `O=C(NC1CCN(Cc2ccccc2)CC1)c1cc(-c2ccncc2)nc2ccc(Cl)cc12`: the MIC90 in data set [1] is 32.5 µM (≈ 14.9 µg/mL); in data set [5] it was above 100 µM. In data set [2], the CC50 stood at 7.1 µM. Moreover, the inhibition at 25 µM in data set [3] was 20.6%; in data set [4] it was 66%.

For the compound `CC(=O)c1ccc(NC(=O)CSc2nc(-c3ccccc3Cl)ns2)cc1`, the MIC90 is 14 µM (≈ 5.65 µg/mL) in data set [1] and above 100 µM in data set [5]. In data set [2], the CC50 stood at 41 µM. Moreover, the inhibition at 25 µM is 13.4% in data set [3] and 96.2% in data set [4].

On to `OC(CNC1CCCCC1)Cn1c2ccccc2c2ccccc21` (stereo not given), for which the MIC90 in data set [1] was 55.9 µM (≈ 18 µg/mL); in data set [5], above 100 µM. The CC50 in data set [2] turned out to be 4.97 µM. In addition, the inhibition at 25 µM in data set [3] stood at 14%; in data set [4] it was 66.6%.

As to `Cc1ccc(Cl)cc1N1CCN(CCCNC(=O)C2CCN(c3nc4ccccc4[nH]3)CC2)CC1`, the MIC90 in data set [1] is 39 µM (≈ 19.3 µg/mL); in data set [5] it was above 100 µM. In addition, the CC50 in data set [2] was 4.79 µM. Further, the inhibition at 25 µM worked out at 26.9% in data set [3] and 75.7% in data set [4].

In the case of `Cc1cc(Nc2cccc(F)c2)nc(NCc2ccccc2)n1`, the MIC90 was 16.4 µM (≈ 5.06 µg/mL) in data set [1] and above 100 µM in data set [5]. Further, the CC50 in data set [2] amounted to 7.18 µM. In addition, the values for the inhibition at 25 µM in data set [3] and in data set [4] were 5.92% and 98.3%, respectively.

On to `Clc1cc(Br)ccc1-c1ccc(CNCC2CCNCC2)o1`, for which the MIC90 in data set [1] was 29.3 µM (≈ 11.2 µg/mL); in data set [5], above 100 µM. The CC50 in data set [2] turned out to be 1.78 µM. The inhibition at 25 µM in data set [3] was determined as 34.2%; in data set [4], 86.5%.

Take `Cc1ccc2cc3c(N)c4c(C)ccc(C)c4nc3nc2c1`: the MIC90 in data set [1] was 6.06 µM (≈ 1.74 µg/mL); in data set [5] it was above 100 µM. Besides, the CC50 in data set [2] was determined as 2.84 µM. Further, the inhibition at 25 µM turned out to be 7.35% in data set [3] and 101% in data set [4].

With `CC(C)CCNCC(O)Cn1c2ccccc2c2ccccc21` (stereo not given), the MIC90 was 22.9 µM (≈ 7.11 µg/mL) in data set [1] and above 100 µM in data set [5]. Besides, in data set [2], the CC50 was 4.74 µM. Further, the inhibition at 25 µM in data set [3] came out at 16.6%; in data set [4], 83.6%.

For `Cc1cc(C)c2nc(N3CCC(C(=O)NCCCN4CCC(N5CCCCC5)CC4)CC3)sc2c1`, the MIC90 in data set [1] is 60.8 µM (≈ 30.3 µg/mL); in data set [5] it was above 100 µM. Besides, in data set [2], the CC50 came to 2.55 µM. The results for the inhibition at 25 µM in data set [3] and in data set [4] were 15.2% and 60.2%, respectively.

On to `O=C(Nc1cccc(C(F)(F)F)c1)c1cc(Cl)ccc1O`, for which the MIC90 in data set [1] turned out to be 3.87 µM (≈ 1.22 µg/mL); in data set [5], 3.46 µM (≈ 1.09 µg/mL). In data set [2], the CC50 is 0.99 µM. Also, the inhibition at 25 µM in data set [3] was found to be 102%; in data set [4], 95.9%.

In the case of `CC(C)(C)CC(C)(C)NCC(O)COc1ccc2c(c1)CCC2` (stereo not given), the MIC90 in data set [1] is 35.6 µM (≈ 11.4 µg/mL); in data set [5], above 100 µM. Moreover, the CC50 in data set [2] came to 8.32 µM. Moreover, the results for the inhibition at 25 µM in data set [3] and in data set [4] were -3.5% and 70.7%, respectively.

`CCCCCCn1c(=N)n(CC(O)COc2cccc(C)c2)c2ccccc21` (stereo not given): the MIC90 came out at 9.69 µM (≈ 3.7 µg/mL) in data set [1] and 27.9 µM (≈ 10.6 µg/mL) in data set [5]. Further, the CC50 in data set [2] worked out at 3.27 µM. Further, the figures for the inhibition at 25 µM in data set [3] and in data set [4] were 31.3% and 98.5%, respectively.

Consider `Cc1ccc(NC(=O)Nc2cccc(Cl)c2)cc1F`, for which the MIC90 was 28.8 µM (≈ 8.03 µg/mL) in data set [1] and above 100 µM in data set [5]. Further, in data set [2], the CC50 turned out to be 11.1 µM. Besides, the inhibition at 25 µM in data set [3] turned out to be 19.7%; in data set [4], 80.7%.

Regarding `O=C(Nc1ccc(F)c(Cl)c1)Nc1ccc(Cl)c(Cl)c1`, the MIC90 in data set [1] came out at 4.03 µM (≈ 1.34 µg/mL); in data set [5], 11 µM (≈ 3.67 µg/mL). Besides, the CC50 in data set [2] stood at 4.33 µM. Moreover, the inhibition at 25 µM worked out at 100% in data set [3] and 97.5% in data set [4].

In the case of `COc1ccc(-c2cc(=O)oc3c4c(ccc23)OCN(Cc2ccc(F)cc2)C4)cc1`, the results for the MIC90 in data set [1] and in data set [5] were 37.5 µM (≈ 15.7 µg/mL) and above 100 µM, respectively. Moreover, the CC50 in data set [2] turned out to be 40.5 µM. Besides, the inhibition at 25 µM in data set [3] was found to be 22.3%; in data set [4], 90.5%.

As for `COc1ccc(Nc2nc(NCc3ccccc3)c3ccccc3n2)cc1`, the results for the MIC90 in data set [1] and in data set [5] were 7.33 µM (≈ 2.61 µg/mL) and 48.7 µM (≈ 17.4 µg/mL), respectively. In addition, in data set [2], the CC50 is 2.59 µM. In addition, the inhibition at 25 µM in data set [3] was found to be 53.9%; in data set [4], 98%.

As to `OC(CNCc1ccccc1)Cn1c2ccccc2c2ccccc21` (stereo not given), the MIC90 in data set [1] was 20.1 µM (≈ 6.64 µg/mL); in data set [5], above 100 µM. Besides, the CC50 in data set [2] is 5.69 µM. Also, the inhibition at 25 µM is 14.3% in data set [3] and 90.3% in data set [4].

For the compound `Clc1ccc2c(N3CCCC3)ccnc2c1`, the MIC90 in data set [1] and in data set [5] was above 100 µM each time. Besides, the CC50 in data set [2] is 34.9 µM. In addition, the inhibition at 25 µM came to 17.1% in data set [3] and 68.8% in data set [4].

As for `CCCCCn1c(=N)n(CC(O)COc2cccc(C)c2)c2ccccc21` (stereo not given), the MIC90 is 23 µM (≈ 8.45 µg/mL) in data set [1] and above 100 µM in data set [5]. In addition, in data set [2], the CC50 amounted to 4.92 µM. Further, the inhibition at 25 µM in data set [3] was 8.77%; in data set [4], 96.5%.

As for `CCN(CC)CCCNc1nc(-c2ccc(Cl)cc2)nc2ccccc12`, the MIC90 is 24.7 µM (≈ 9.11 µg/mL) in data set [1] and above 100 µM in data set [5]. The CC50 in data set [2] was 2.72 µM. Besides, the inhibition at 25 µM in data set [3] is 17.1%; in data set [4] it was 95.3%.

Turning to `Cc1ccc(Nc2nc(NCCO)c3ccccc3n2)cc1C`, the values for the MIC90 in data set [1] and in data set [5] were 9.52 µM (≈ 2.94 µg/mL) and 82.6 µM (≈ 25.5 µg/mL), respectively. Besides, the CC50 in data set [2] came to 5.5 µM. In addition, the values for the inhibition at 25 µM in data set [3] and in data set [4] were 7.14% and 97.2%, respectively.
